Reference: the supplement of paper PMC13380429

Assays:
Details in all cases: 72 h
Caco-2 [1] = experiment: cell viability relative to DMSO; higher = less toxic
Calu-3 [2] = experiment: as above
HepG2 [3] = experiment: as above
U2OS [4] = experiment: as above
Vero E6 [5] = experiment: as above
Caco-2 [6] = experiment: relative viability EC50 (midpoint between 100% and the lowest measured viability); higher = less toxic
Calu-3 [7] = experiment: as above
HepG2 [8] = experiment: as above
U2OS [9] = experiment: as above
Vero E6 [10] = experiment: as above
Caco-2 [11] = experiment: drug sensitivity score (DSS) for viability; higher = more toxic; extreme values may be limits of the assay
Calu-3 [12] = experiment: as above
HepG2 [13] = experiment: as above
U2OS [14] = experiment: as above
Vero E6 [15] = experiment: as above

C[N+]1(C)[C@@H]2CC[C@H]1C[C@@H](OC(=O)C(O)c1ccccc1)C2 (stereo not given in full) [homatropine-methylbromide]
cell viability (Caco-2 [1]; 1 nM): 100%
cell viability (Caco-2 [1]; 10 nM): 90.8%
cell viability (Caco-2 [1]; 100 nM): 99.7%
cell viability (Caco-2 [1]; 1000 nM): 106%
cell viability (Caco-2 [1]; 10000 nM): 84.2%
cell viability (Calu-3 [2]; 1 nM): 105%
cell viability (Calu-3 [2]; 10 nM): 108%
cell viability (Calu-3 [2]; 100 nM): 114%
cell viability (Calu-3 [2]; 1000 nM): 94.2%
cell viability (Calu-3 [2]; 10000 nM): 102%
cell viability (HepG2 [3]; 1 nM): 98.7%
cell viability (HepG2 [3]; 10 nM): 95.3%
cell viability (HepG2 [3]; 100 nM): 102%
cell viability (HepG2 [3]; 1000 nM): 91.8%
cell viability (HepG2 [3]; 10000 nM): 98.9%
cell viability (U2OS [4]; 1 nM): 96.7%
cell viability (U2OS [4]; 10 nM): 101%
cell viability (U2OS [4]; 100 nM): 95.2%
cell viability (U2OS [4]; 1000 nM): 102%
cell viability (U2OS [4]; 10000 nM): 96.4%
cell viability (Vero E6 [5]; 1 nM): 101%
cell viability (Vero E6 [5]; 10 nM): 97.5%
cell viability (Vero E6 [5]; 100 nM): 106%
cell viability (Vero E6 [5]; 1000 nM): 108%
cell viability (Vero E6 [5]; 10000 nM): 98.8%
relative viability EC50 (Caco-2 [6]): > 10 µM
relative viability EC50 (Calu-3 [7]): > 10 µM
relative viability EC50 (HepG2 [8]): > 10 µM
relative viability EC50 (U2OS [9]): > 10 µM
relative viability EC50 (Vero E6 [10]): > 10 µM
drug sensitivity score (Caco-2 [11]): 0.2
drug sensitivity score (Calu-3 [12]): 0
drug sensitivity score (HepG2 [13]): 0
drug sensitivity score (U2OS [14]): 0
drug sensitivity score (Vero E6 [15]): 0

O=C(O)c1ccccc1 [benzoic-acid]
cell viability (Caco-2 [1]; 1 nM): 99%
cell viability (Caco-2 [1]; 10 nM): 101%
cell viability (Caco-2 [1]; 100 nM): 95.9%
cell viability (Caco-2 [1]; 1000 nM): 98.7%
cell viability (Caco-2 [1]; 10000 nM): 98.7%
cell viability (Calu-3 [2]; 1 nM): 99.4%
cell viability (Calu-3 [2]; 10 nM): 101%
cell viability (Calu-3 [2]; 100 nM): 96.8%
cell viability (Calu-3 [2]; 1000 nM): 99.2%
cell viability (Calu-3 [2]; 10000 nM): 92.6%
cell viability (HepG2 [3]; 1 nM): 101%
cell viability (HepG2 [3]; 10 nM): 95.6%
cell viability (HepG2 [3]; 100 nM): 104%
cell viability (HepG2 [3]; 1000 nM): 92.4%
cell viability (HepG2 [3]; 10000 nM): 96.3%
cell viability (U2OS [4]; 1 nM): 98.9%
cell viability (U2OS [4]; 10 nM): 102%
cell viability (U2OS [4]; 100 nM): 99.1%
cell viability (U2OS [4]; 1000 nM): 98.2%
cell viability (U2OS [4]; 10000 nM): 95.9%
cell viability (Vero E6 [5]; 1 nM): 97.1%
cell viability (Vero E6 [5]; 10 nM): 97.6%
cell viability (Vero E6 [5]; 100 nM): 100%
cell viability (Vero E6 [5]; 1000 nM): 97.7%
cell viability (Vero E6 [5]; 10000 nM): 102%
relative viability EC50 (Caco-2 [6]): > 10 µM
relative viability EC50 (Calu-3 [7]): > 10 µM
relative viability EC50 (HepG2 [8]): > 10 µM
relative viability EC50 (U2OS [9]): > 10 µM
relative viability EC50 (Vero E6 [10]): > 10 µM
drug sensitivity score (Caco-2 [11]): 0
drug sensitivity score (Calu-3 [12]): 0
drug sensitivity score (HepG2 [13]): 0
drug sensitivity score (U2OS [14]): 0
drug sensitivity score (Vero E6 [15]): 0

Nc1cccc(-c2cc3c(Oc4cccc(O)c4)ncnc3[nH]2)c1 [TWS-119]
cell viability (Caco-2 [1]; 1 nM): 99.3%
cell viability (Caco-2 [1]; 10 nM): 99.4%
cell viability (Caco-2 [1]; 100 nM): 98.2%
cell viability (Caco-2 [1]; 1000 nM): 89.5%
cell viability (Caco-2 [1]; 10000 nM): 40.4%
cell viability (Calu-3 [2]; 1 nM): 108%
cell viability (Calu-3 [2]; 10 nM): 97.8%
cell viability (Calu-3 [2]; 100 nM): 86.2%
cell viability (Calu-3 [2]; 1000 nM): 96.4%
cell viability (Calu-3 [2]; 10000 nM): 25.7%
cell viability (HepG2 [3]; 1 nM): 113%
cell viability (HepG2 [3]; 10 nM): 107%
cell viability (HepG2 [3]; 100 nM): 128%
cell viability (HepG2 [3]; 1000 nM): 104%
cell viability (HepG2 [3]; 10000 nM): 90.1%
cell viability (U2OS [4]; 1 nM): 103%
cell viability (U2OS [4]; 10 nM): 108%
cell viability (U2OS [4]; 100 nM): 102%
cell viability (U2OS [4]; 1000 nM): 96.6%
cell viability (U2OS [4]; 10000 nM): 25.2%
cell viability (Vero E6 [5]; 1 nM): 110%
cell viability (Vero E6 [5]; 10 nM): 101%
cell viability (Vero E6 [5]; 100 nM): 101%
cell viability (Vero E6 [5]; 1000 nM): 82.2%
cell viability (Vero E6 [5]; 10000 nM): 24.9%
relative viability EC50 (Caco-2 [6]): 1.85 µM
relative viability EC50 (Calu-3 [7]): 2.79 µM
relative viability EC50 (HepG2 [8]): > 10 µM
relative viability EC50 (U2OS [9]): 2.82 µM
relative viability EC50 (Vero E6 [10]): 1.59 µM
drug sensitivity score (Caco-2 [11]): 5
drug sensitivity score (Calu-3 [12]): 4.6
drug sensitivity score (HepG2 [13]): 0
drug sensitivity score (U2OS [14]): 4.6
drug sensitivity score (Vero E6 [15]): 7
